Reference: ChEMBL document CHEMBL1777803, “Synthesis and SAR study of tricyclic sulfones as γ-secretase inhibitors: C-6 and C-8 positions” (Bioorg Med Chem Lett, 2011)

Experiments:
[1] = Inhibition of gamma secretase-mediated Abeta40 production
[2] = Dissociation constant, pKa of the compound in DMSO; assay type: physicochemical
[3] = nhibition of gamma secretase-mediated Abeta40 production by cell based assay
[4] = nhibition of gamma secretase-mediated Abeta42 production by cell based assay

Row | SMILES | IC50 [1] [nM] | other results
1 | O=S(=O)(c1ccc(Cl)cc1)[C@@]12CCCC[C@@H]1COc1c(F)ccc(F)c12 | 22 | 
2 | CS(N)(=O)=O [METHANESULFONAMIDE] |  | pKa [2]: 17.5
3 | O=S(=O)(N[C@@H]1CC[C@@]2(S(=O)(=O)c3ccc(Cl)cc3)c3c(F)ccc(F)c3OC[C@@]2(O)C1)C1CCC1 | 212 | 
4 | O=S(=O)(c1ccc(Cl)cc1)[C@@]12CC[C@H](O)C[C@]1(O)COc1c(F)ccc(F)c12 | 363 | 
5 | O=S(=O)(CF)N[C@@H]1CC[C@@]2(S(=O)(=O)c3ccc(Cl)cc3)c3c(F)ccc(F)c3OC[C@@]2(O)C1 | 164 | 
6 | O=S(=O)(N[C@@H]1CC[C@@]2(S(=O)(=O)c3ccc(C(F)(F)F)cc3)c3c(F)ccc(F)c3OC[C@@]2(O)C1)C(F)(F)F | 23 | IC50 [3]: 80 nM; IC50 [4]: 51 nM
7 | O=S(=O)(c1ccc(Cl)cc1)[C@@]12CCC3(C[C@]1(O)COc1c(F)ccc(F)c12)OCCO3 | 2900 | 
8 | O=S(=O)(N[C@@H]1CC[C@@]2(S(=O)(=O)c3ccc(Cl)cc3)c3c(F)ccc(F)c3OC[C@H]2C1)C(F)(F)F | 27 | 
9 | O=S(=O)(c1ccc(Cl)cc1)[C@@]12CC[C@@H](O)C[C@]1(O)COc1c(F)ccc(F)c12 | 28 | 
10 | O=C1CC[C@@]2(S(=O)(=O)c3ccc(Cl)cc3)c3c(F)ccc(F)c3OC[C@@]2(O)C1 | 21 | 
11 | O=S(=O)(N[C@@H]1CC[C@@]2(S(=O)(=O)c3ccc(C(F)(F)F)cc3)c3c(F)ccc(F)c3OC[C@@]2(O)C1)C1CC1 | 173 | 
12 | O=C1CC[C@@]2(S(=O)(=O)c3ccc(C(F)(F)F)cc3)c3c(F)ccc(F)c3OC[C@@]2(O)C1 | 53 | 
13 | NS(=O)(=O)C(F)(F)F [TRIFLUOROMETHANESULFONAMIDE] |  | pKa ([2]; DMSO, read-out: pKa): 9.7
14 | O=C1CC[C@@]2(S(=O)(=O)c3ccc(Cl)cc3)c3c(F)ccc(F)c3OC[C@H]2C1 | 13 | 
15 | O=C1CC[C@@]2(S(=O)(=O)c3ccc(Cl)cc3)c3c(F)ccc(F)c3OC[C@]2(O)C1 | 3000 | 
16 | O=S(=O)(NCCO[C@@]12COc3c(F)ccc(F)c3[C@]1(S(=O)(=O)c1ccc(Cl)cc1)CC[C@@H](O)C2)C(F)(F)F | 4100 | 
17 | O=S(=O)(N[C@@H]1CC[C@@]2(S(=O)(=O)c3ccc(Cl)cc3)c3c(F)ccc(F)c3OC[C@@]2(O)C1)C1CC1 | 29 | IC50 [3]: 3 nM; IC50 [4]: 9 nM
18 | O=S(=O)(N[C@@H]1CC[C@@]2(S(=O)(=O)c3ccc(Cl)cc3)c3c(F)ccc(F)c3OC[C@@]2(O)C1)C(F)F | 68 | 
19 | O=S(=O)(c1ccc(C(F)(F)F)cc1)[C@@]12CC[C@@H](O)C[C@]1(O)COc1c(F)ccc(F)c12 | 136 | 
20 | O=S(=O)(N[C@@H]1CC[C@@]2(S(=O)(=O)c3ccc(Cl)cc3)c3c(F)ccc(F)c3OC[C@@]2(O)C1)C(F)(F)F | 21 | IC50 [3]: 11 nM; IC50 [4]: 33 nM

The next lines start with results.

Row | IC50 [1] [nM] | SMILES | other results
21 | 12 | NCCO[C@]12CCCC[C@@]1(S(=O)(=O)c1ccc(Cl)cc1)c1c(F)ccc(F)c1OC2 | 
22 | 37 | CNS(=O)(=O)CCO[C@]12CCCC[C@@]1(S(=O)(=O)c1ccc(Cl)cc1)c1c(F)ccc(F)c1OC2 | 
23 | 31 | CN(C)CCO[C@]12CCCC[C@@]1(S(=O)(=O)c1ccc(Cl)cc1)c1c(F)ccc(F)c1OC2 | 
24 | 87 | CCS(=O)(=O)CCO[C@@]12COc3c(F)ccc(F)c3[C@]1(S(=O)(=O)c1ccc(Cl)cc1)CC[C@@H](O)C2 | 
25 | 1300 | CCS(=O)(=O)CCO[C@@]12COc3c(F)ccc(F)c3[C@]1(S(=O)(=O)c1ccc(Cl)cc1)CCC1(C2)OCCO1 | 
26 | 52 | CC(C)S(=O)(=O)CCO[C@@]12COc3c(F)ccc(F)c3[C@]1(S(=O)(=O)c1ccc(Cl)cc1)CC[C@@H](O)C2 | 
27 | 8 | CC(C)S(=O)(=O)CCO[C@]12CCCC[C@@]1(S(=O)(=O)c1ccc(Cl)cc1)c1c(F)ccc(F)c1OC2 | 
28 | 170 | CCSCCO[C@]12CCCC[C@@]1(S(=O)(=O)c1ccc(Cl)cc1)c1c(F)ccc(F)c1OC2 | 
29 | 26 | CS(=O)(=O)NCCO[C@]12CCCC[C@@]1(S(=O)(=O)c1ccc(Cl)cc1)c1c(F)ccc(F)c1OC2 | 
30 | 180 | CC(C)SCCO[C@]12CCCC[C@@]1(S(=O)(=O)c1ccc(Cl)cc1)c1c(F)ccc(F)c1OC2 | 
31 | 940 | CC(C)S(=O)(=O)CCO[C@@]12COc3c(F)ccc(F)c3[C@]1(S(=O)(=O)c1ccc(Cl)cc1)CCC1(C2)OCCO1 | 
32 | 130 | CC(C)S(=O)(=O)CCO[C@@]12COc3c(F)ccc(F)c3[C@]1(S(=O)(=O)c1ccc(Cl)cc1)CCC(=O)C2 | 
33 | 15 | CCS(=O)(=O)CCO[C@]12CCCC[C@@]1(S(=O)(=O)c1ccc(Cl)cc1)c1c(F)ccc(F)c1OC2 | 
34 | 40 | CNCCO[C@]12CCCC[C@@]1(S(=O)(=O)c1ccc(Cl)cc1)c1c(F)ccc(F)c1OC2 | 
35 | 9 | CS(=O)(=O)CCO[C@]12CCCC[C@@]1(S(=O)(=O)c1ccc(Cl)cc1)c1c(F)ccc(F)c1OC2 | 
36 | 160 | CCS(=O)(=O)CCO[C@@]12COc3c(F)ccc(F)c3[C@]1(S(=O)(=O)c1ccc(Cl)cc1)CCC(=O)C2 | 
37 | 295 | O=S(=O)(NCCO[C@]12CCCC[C@@]1(S(=O)(=O)c1ccc(Cl)cc1)c1c(F)ccc(F)c1OC2)C(F)(F)F | 
38 | 50 | CN(C)S(=O)(=O)CCO[C@]12CCCC[C@@]1(S(=O)(=O)c1ccc(Cl)cc1)c1c(F)ccc(F)c1OC2 | 
